Source: the kinase profiling compilation of Christmann-Franck et al. (2016)

Assays:
Test in all cases: KINOMEscan competition binding
[1] = target: SGK110 (human) (UniProt P0C264); conditions: compound 1.0 µM
[2] = target: STK32B (human) (UniProt Q9NY57); conditions: compound 1.0 µM
[3] = target: HIPK2 (human) (UniProt Q9H2X6); conditions: compound 1.0 µM
[4] = target: PIM1 (human) (UniProt P11309); conditions: compound 1.0 µM
[5] = target: DSTYK (human) (UniProt Q6XUX3); conditions: compound 1.0 µM
[6] = target: NEK2 (human) (UniProt P51955); conditions: compound 1.0 µM
Sequence of NEK2 (human) (P51955 whole entry, looked up): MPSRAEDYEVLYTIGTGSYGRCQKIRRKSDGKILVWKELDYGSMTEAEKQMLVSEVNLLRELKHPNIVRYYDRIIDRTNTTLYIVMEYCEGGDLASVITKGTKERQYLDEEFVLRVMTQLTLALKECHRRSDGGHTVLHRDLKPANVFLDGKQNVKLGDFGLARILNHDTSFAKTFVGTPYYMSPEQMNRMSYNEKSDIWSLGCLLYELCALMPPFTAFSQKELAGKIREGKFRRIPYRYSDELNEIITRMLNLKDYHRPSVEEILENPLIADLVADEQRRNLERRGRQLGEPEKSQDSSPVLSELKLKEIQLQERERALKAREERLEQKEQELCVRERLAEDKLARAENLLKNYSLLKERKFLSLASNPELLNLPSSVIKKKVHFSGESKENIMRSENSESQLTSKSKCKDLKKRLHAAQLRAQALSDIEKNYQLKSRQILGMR

[7] = target: FGFR2 (human) (UniProt P21802); conditions: compound 1.0 µM
[8] = target: ZAP70 (human) (UniProt P43403); conditions: compound 1.0 µM
[9] = target: EPHA6 (human) (UniProt Q9UF33); conditions: compound 1.0 µM
[10] = target: STK16 (human) (UniProt O75716); conditions: compound 1.0 µM
[11] = target: STK39 (human) (UniProt Q9UEW8); conditions: compound 1.0 µM
[12] = tested on: FLT3 (human), P36888 [R834Q]; conditions: compound 1.0 µM
[13] = target: PIP4K2C (human) (UniProt Q8TBX8)
Sequence of PIP4K2C (human) (Q8TBX8 whole entry, looked up): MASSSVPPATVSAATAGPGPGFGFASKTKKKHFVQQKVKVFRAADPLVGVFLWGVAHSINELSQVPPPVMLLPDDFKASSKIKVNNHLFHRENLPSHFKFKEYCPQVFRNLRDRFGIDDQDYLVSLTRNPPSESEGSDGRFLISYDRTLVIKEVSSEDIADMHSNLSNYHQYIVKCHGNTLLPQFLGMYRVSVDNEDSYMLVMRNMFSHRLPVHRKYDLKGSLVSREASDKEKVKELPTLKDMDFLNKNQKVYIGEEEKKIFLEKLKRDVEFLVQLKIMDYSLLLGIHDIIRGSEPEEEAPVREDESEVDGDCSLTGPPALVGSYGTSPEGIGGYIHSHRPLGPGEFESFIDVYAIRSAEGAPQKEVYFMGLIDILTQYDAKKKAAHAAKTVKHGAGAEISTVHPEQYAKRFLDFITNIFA

[14] = target: ERBB2 (human) (UniProt P04626); conditions: compound 1.0 µM
[15] = target: CDKL1 (human) (UniProt Q00532); conditions: compound 1.0 µM
[16] = target: AKT2 (human) (UniProt P31751); conditions: compound 1.0 µM
[17] = target: MAP2K6 (human) (UniProt P52564); conditions: compound 1.0 µM
[18] = target: FYN (human) (UniProt P06241); conditions: compound 1.0 µM
[19] = target: MAPK1 (human) (UniProt P28482); conditions: compound 1.0 µM
[20] = target: IRAK4 (human) (UniProt Q9NWZ3); conditions: compound 1.0 µM
[21] = target: TIE1 (human) (UniProt P35590); conditions: compound 1.0 µM
Sequence of TIE1 (human) (P35590 whole entry, looked up): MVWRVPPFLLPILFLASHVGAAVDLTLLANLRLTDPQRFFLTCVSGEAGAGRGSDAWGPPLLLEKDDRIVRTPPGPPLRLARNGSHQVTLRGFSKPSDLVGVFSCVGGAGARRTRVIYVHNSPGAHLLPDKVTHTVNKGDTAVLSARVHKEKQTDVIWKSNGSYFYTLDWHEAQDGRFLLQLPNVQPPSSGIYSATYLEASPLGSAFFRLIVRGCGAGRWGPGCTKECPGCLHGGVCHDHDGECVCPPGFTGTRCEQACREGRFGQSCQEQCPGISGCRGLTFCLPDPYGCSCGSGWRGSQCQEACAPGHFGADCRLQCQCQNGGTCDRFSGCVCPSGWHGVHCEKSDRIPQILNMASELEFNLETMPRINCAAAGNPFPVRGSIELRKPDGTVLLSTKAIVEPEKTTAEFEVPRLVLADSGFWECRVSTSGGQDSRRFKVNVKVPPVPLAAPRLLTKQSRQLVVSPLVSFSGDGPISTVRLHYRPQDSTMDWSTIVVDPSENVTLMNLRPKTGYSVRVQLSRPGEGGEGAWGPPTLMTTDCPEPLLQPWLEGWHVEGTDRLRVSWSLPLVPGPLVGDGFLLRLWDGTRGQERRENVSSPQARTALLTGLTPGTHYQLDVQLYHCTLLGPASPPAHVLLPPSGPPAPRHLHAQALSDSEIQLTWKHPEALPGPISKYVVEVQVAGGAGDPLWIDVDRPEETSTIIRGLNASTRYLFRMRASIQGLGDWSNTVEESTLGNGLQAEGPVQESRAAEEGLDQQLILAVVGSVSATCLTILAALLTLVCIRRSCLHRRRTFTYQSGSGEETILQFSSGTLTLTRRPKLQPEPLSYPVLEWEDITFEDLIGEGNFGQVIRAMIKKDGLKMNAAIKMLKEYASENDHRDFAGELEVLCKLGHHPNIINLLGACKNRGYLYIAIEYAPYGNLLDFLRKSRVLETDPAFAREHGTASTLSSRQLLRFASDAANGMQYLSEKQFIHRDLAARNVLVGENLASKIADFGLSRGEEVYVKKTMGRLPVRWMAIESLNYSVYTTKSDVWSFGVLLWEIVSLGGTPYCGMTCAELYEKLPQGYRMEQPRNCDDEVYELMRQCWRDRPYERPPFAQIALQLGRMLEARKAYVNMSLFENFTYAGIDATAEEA

[22] = target: STK35 (human) (UniProt Q8TDR2); conditions: compound 1.0 µM
[23] = target: PIK3CA (human) (UniProt P42336); conditions: compound 1.0 µM
[24] = tested on: KIT (human), P10721 [D816V]; conditions: compound 1.0 µM
[25] = target: ULK2 (human) (UniProt Q8IYT8); conditions: compound 1.0 µM
[26] = target: ULK3 (human) (UniProt Q6PHR2); conditions: compound 1.0 µM
[27] = target: RPS6KA6 KD2 (human) (UniProt Q9UK32); conditions: compound 1.0 µM
Sequence of RPS6KA6 KD2 (human) (Q9UK32 whole entry, looked up): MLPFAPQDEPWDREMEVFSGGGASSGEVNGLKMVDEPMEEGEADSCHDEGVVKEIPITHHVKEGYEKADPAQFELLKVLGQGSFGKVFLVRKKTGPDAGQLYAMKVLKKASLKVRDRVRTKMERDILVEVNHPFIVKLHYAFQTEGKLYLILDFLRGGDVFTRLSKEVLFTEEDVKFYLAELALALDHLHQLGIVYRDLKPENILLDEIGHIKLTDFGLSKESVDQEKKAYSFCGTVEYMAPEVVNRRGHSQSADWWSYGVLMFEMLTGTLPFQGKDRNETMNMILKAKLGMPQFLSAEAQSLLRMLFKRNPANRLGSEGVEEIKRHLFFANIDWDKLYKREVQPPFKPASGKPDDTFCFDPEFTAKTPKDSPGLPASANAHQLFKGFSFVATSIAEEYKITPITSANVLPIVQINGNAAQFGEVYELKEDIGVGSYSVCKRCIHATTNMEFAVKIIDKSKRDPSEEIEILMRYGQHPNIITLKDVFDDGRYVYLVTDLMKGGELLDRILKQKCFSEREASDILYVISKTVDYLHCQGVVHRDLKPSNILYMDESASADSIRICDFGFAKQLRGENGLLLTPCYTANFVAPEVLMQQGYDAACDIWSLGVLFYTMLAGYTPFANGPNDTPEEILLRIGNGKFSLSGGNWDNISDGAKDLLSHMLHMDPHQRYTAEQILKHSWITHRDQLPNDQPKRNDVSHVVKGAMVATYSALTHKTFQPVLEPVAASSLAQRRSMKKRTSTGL

[28] = tested on: PIK3CA (human), P42336 [E545A]; conditions: compound 1.0 µM
[29] = tested on: EGFR (human), P00533 [746-750 del]; conditions: compound 1.0 µM
[30] = target: HIPK1 (human) (UniProt Q86Z02); conditions: compound 1.0 µM
Sequence of HIPK1 (human) (Q86Z02 whole entry, looked up): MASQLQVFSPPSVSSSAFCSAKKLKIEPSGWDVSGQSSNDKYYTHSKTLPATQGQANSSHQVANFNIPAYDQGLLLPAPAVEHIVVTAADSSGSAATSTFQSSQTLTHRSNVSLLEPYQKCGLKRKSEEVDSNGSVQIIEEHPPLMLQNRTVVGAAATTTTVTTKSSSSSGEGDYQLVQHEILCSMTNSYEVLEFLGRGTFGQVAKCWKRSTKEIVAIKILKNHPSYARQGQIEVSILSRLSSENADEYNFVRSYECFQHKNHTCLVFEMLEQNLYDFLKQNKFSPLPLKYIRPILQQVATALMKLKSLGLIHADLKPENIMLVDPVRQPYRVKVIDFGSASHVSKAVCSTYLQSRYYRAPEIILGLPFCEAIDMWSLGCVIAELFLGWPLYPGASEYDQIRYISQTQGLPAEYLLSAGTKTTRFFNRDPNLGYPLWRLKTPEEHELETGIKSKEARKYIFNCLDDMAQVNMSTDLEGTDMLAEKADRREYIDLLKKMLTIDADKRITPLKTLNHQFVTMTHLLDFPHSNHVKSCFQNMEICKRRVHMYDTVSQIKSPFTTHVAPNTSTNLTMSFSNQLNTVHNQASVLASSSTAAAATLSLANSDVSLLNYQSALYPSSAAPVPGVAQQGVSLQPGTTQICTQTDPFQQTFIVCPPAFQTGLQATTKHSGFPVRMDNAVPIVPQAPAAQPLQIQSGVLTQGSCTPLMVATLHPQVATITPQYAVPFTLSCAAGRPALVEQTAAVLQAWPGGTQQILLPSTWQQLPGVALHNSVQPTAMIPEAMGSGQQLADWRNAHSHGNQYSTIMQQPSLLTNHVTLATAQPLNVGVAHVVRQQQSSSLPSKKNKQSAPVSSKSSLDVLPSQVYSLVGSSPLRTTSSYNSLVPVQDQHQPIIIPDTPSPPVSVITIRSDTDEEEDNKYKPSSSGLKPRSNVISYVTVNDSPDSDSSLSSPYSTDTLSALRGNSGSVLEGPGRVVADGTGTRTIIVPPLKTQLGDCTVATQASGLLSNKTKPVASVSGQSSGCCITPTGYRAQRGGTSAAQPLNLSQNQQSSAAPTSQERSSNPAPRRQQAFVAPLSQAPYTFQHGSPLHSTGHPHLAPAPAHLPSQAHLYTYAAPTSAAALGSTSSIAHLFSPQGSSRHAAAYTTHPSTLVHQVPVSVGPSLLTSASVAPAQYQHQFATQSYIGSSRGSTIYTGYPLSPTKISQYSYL

[31] = target: PIP5K1C (human) (UniProt O60331); conditions: compound 1.0 µM
[32] = target: MINK1 (human) (UniProt Q8N4C8); conditions: compound 1.0 µM
[33] = tested on: FGFR3 (human), P22607 [G697C]; conditions: compound 1.0 µM
[34] = target: AURKA (human) (UniProt O14965); conditions: compound 1.0 µM
[35] = target: CSNK1E (human) (UniProt P49674); conditions: compound 1.0 µM
[36] = target: NEK3 (human) (UniProt P51956); conditions: compound 1.0 µM
Sequence of NEK3 (human) (P51956 whole entry, looked up): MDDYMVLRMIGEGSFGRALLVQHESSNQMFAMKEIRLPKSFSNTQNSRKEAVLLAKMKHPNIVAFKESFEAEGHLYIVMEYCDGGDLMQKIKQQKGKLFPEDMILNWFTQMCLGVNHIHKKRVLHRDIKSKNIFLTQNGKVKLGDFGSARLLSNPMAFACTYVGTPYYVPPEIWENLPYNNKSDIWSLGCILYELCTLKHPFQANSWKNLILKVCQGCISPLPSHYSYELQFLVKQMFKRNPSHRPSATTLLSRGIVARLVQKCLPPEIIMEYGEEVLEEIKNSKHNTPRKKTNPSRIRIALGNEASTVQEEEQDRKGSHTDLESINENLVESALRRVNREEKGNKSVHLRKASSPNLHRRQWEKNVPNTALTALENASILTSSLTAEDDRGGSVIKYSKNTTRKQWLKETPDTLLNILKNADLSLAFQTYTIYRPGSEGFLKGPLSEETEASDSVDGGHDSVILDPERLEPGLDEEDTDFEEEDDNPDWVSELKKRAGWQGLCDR

[37] = target: STK10 (human) (UniProt O94804); conditions: compound 1.0 µM
[38] = target: STK32A (human) (UniProt Q8WU08); conditions: compound 1.0 µM
[39] = target: PIM3 (human) (UniProt Q86V86); conditions: compound 1.0 µM
[40] = target: EIF2AK2 (human) (UniProt P19525); conditions: compound 1.0 µM
[41] = target: PIK3CB (human) (UniProt P42338); conditions: compound 1.0 µM
[42] = target: MKNK2 (human) (UniProt Q9HBH9); conditions: compound 1.0 µM
[43] = target: TNNI3K (human) (UniProt Q59H18); conditions: compound 1.0 µM

Sequence of STK32B (human) (Q9NY57 whole entry, looked up): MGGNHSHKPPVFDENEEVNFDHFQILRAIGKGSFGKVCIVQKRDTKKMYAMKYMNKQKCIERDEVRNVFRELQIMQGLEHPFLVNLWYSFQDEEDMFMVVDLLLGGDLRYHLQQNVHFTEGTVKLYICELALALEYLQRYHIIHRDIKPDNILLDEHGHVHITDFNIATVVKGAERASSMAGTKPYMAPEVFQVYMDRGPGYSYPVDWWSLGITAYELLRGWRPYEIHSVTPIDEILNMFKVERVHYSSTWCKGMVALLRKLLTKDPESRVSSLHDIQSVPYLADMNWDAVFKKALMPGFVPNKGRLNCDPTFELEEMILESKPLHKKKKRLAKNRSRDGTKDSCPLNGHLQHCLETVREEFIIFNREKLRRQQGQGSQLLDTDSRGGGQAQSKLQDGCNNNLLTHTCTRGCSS

CN(C)C/C=C/C(=O)Nc1cccc(C(=O)Nc2ccc(Nc3nccc(-c4cccnc4)n3)cc2)c1
kinase still bound, per cent of control [1]: 100% | kinase still bound, per cent of control [2]: 100% | kinase still bound, per cent of control [3]: 9.2% | kinase still bound, per cent of control [4]: 94% | kinase still bound, per cent of control [5]: 100% | kinase still bound, per cent of control [6]: 86% | kinase still bound, per cent of control [7]: 67% | kinase still bound, per cent of control [8]: 100% | kinase still bound, per cent of control [9]: 95% | kinase still bound, per cent of control [10]: 15% | kinase still bound, per cent of control [11]: 95% | kinase still bound, per cent of control [12]: 74% | Kd [13]: 32 nM | kinase still bound, per cent of control ([13]; compound 1.0 µM): 3.3% | kinase still bound, per cent of control [14]: 92% | kinase still bound, per cent of control [15]: 54% | kinase still bound, per cent of control [16]: 96% | kinase still bound, per cent of control [17]: 53% | kinase still bound, per cent of control [18]: 90% | kinase still bound, per cent of control [19]: 100% | kinase still bound, per cent of control [20]: 100% | kinase still bound, per cent of control [21]: 100% | kinase still bound, per cent of control [22]: 67% | kinase still bound, per cent of control [23]: 75% | kinase still bound, per cent of control [24]: 16% | kinase still bound, per cent of control [25]: 86% | kinase still bound, per cent of control [26]: 7% | kinase still bound, per cent of control [27]: 100% | kinase still bound, per cent of control [28]: 95% | kinase still bound, per cent of control [29]: 88% | kinase still bound, per cent of control [30]: 3.6% | kinase still bound, per cent of control [31]: 22% | kinase still bound, per cent of control [32]: 37% | kinase still bound, per cent of control [33]: 100% | kinase still bound, per cent of control [34]: 67% | kinase still bound, per cent of control [35]: 6.8% | kinase still bound, per cent of control [36]: 6.8% | kinase still bound, per cent of control [37]: 100% | kinase still bound, per cent of control [38]: 100% | kinase still bound, per cent of control [39]: 92% | kinase still bound, per cent of control [40]: 53% | kinase still bound, per cent of control [41]: 94% | kinase still bound, per cent of control [42]: 13% | kinase still bound, per cent of control [43]: 77%
